System: 876862-298-R-J1-PDC complex spheroids, viability % test/control
Test: Anticancer human tumor 876862-298-R-J1-PDC patient-derived endometrial carcinoma cell line growth inhibition [CLK]
Details: for IC50: curve of first compound; for viability, T/C: stronger effect = lower value
Method in brief: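 Multi-cell-type spheroids combined patient-derived tumor cells with HUVEC endothelial cells and human mesenchymal stem cells. Paired agents were dosed in half-log steps down from about clinical Cmax, or from 10 microM where Cmax was unknown.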

[1] = second compound 0.0316 µM, first compound 0.0316 µM
[2] = second compound 0.0316 µM, first compound 0.1 µM
[3] = second compound 0.0316 µM, first compound 0.316 µM
[4] = second compound 0.0316 µM, first compound 1 µM
[5] = second compound 0.0316 µM, first compound 3.16 µM
[6] = second compound 0.0316 µM, first compound 10 µM
[7] = second compound 0.1 µM, first compound 0.0316 µM
[8] = second compound 0.1 µM, first compound 0.1 µM
[9] = second compound 0.1 µM, first compound 0.316 µM
[10] = second compound 0.1 µM, first compound 1 µM
[11] = second compound 0.1 µM, first compound 3.16 µM
[12] = second compound 0.1 µM, first compound 10 µM
[13] = second compound 0.316 µM, first compound 0.0316 µM
[14] = second compound 0.316 µM, first compound 0.1 µM
[15] = second compound 0.316 µM, first compound 0.316 µM
[16] = second compound 0.316 µM, first compound 1 µM
[17] = second compound 0.316 µM, first compound 3.16 µM
[18] = second compound 0.316 µM, first compound 10 µM
[19] = second compound 1 µM, first compound 0.0316 µM
[20] = second compound 1 µM, first compound 0.1 µM
[21] = second compound 1 µM, first compound 0.316 µM
[22] = second compound 1 µM, first compound 1 µM
[23] = second compound 1 µM, first compound 3.16 µM
[24] = second compound 1 µM, first compound 10 µM
[25] = second compound 3.16 µM, first compound 0.0316 µM
[26] = second compound 3.16 µM, first compound 0.1 µM
[27] = second compound 3.16 µM, first compound 0.316 µM
[28] = second compound 3.16 µM, first compound 1 µM
[29] = second compound 3.16 µM, first compound 3.16 µM
[30] = second compound 3.16 µM, first compound 10 µM
[31] = second compound 10 µM, first compound 0.0316 µM
[32] = second compound 10 µM, first compound 0.1 µM
[33] = second compound 10 µM, first compound 0.316 µM
[34] = second compound 10 µM, first compound 1 µM
[35] = second compound 10 µM, first compound 3.16 µM
[36] = second compound 10 µM, first compound 10 µM
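Also: spheroids exposed to drugs for 7 days before readout.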
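For viability, T/C in this document: 100% = DMSO vehicle control wells.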

Compound `CCCS(=O)(=O)Nc1ccc(F)c(C(=O)c2c[nH]c3ncc(-c4ccc(Cl)cc4)cc23)c1F` + CNC(=O)c1ccc(Nc2nc(OC3CCCC3)c3c(-c4ccc5nc(C)oc5c4)c[nH]c3n2)c(OC)c1 has an IC50 (second compound 0.0316 µM) of 7040 nM, an IC50 (second compound 0.1 µM) of less than 31.6 nM and an IC50 (second compound 0.316 µM) of less than 31.6 nM. The IC50 (second compound 1 µM) was less than 31.6 nM, the IC50 (second compound 3.16 µM) was less than 31.6 nM and the IC50 (second compound 10 µM) was less than 31.6 nM. The viability, T/C [1] was 72.1%, the viability, T/C [2] was 89.1% and the viability, T/C [3] was 88.1%. The viability, T/C [4] was 90.9%, the viability, T/C [5] was 68.2% and the viability, T/C [6] was 42%. For the same compound, the viability, T/C [7] was 40.2%, the viability, T/C [8] was 54.9% and the viability, T/C [9] was 50.5%. For the same compound, the viability, T/C [10] was 49.2%, the viability, T/C [11] was 40.4% and the viability, T/C [12] was 26.6%. It also gave a viability, T/C [13] of 45.6%, a viability, T/C [14] of 41.2% and a viability, T/C [15] of 43.8%. The viability, T/C [16] was 40.1%, the viability, T/C [17] was 31.7% and the viability, T/C [18] was 18.1%. For the same compound, the viability, T/C [19] was 36.9%, the viability, T/C [20] was 32% and the viability, T/C [21] was 30.7%. For the same compound, the viability, T/C [22] was 32.7%, the viability, T/C [23] was 22.4% and the viability, T/C [24] was 12.7%. The viability, T/C [25] was 23.5%, the viability, T/C [26] was 25.1% and the viability, T/C [27] was 21.2%. For the same compound, the viability, T/C [28] was 26.1%, the viability, T/C [29] was 19.1% and the viability, T/C [30] was 10.8%. The viability, T/C [31] was 23.1%, the viability, T/C [32] was 21.4% and the viability, T/C [33] was 21%. The viability, T/C [34] was 22.3%, the viability, T/C [35] was 15.9% and the viability, T/C [36] was 10.4%.
Compound `CCc1c2c(nc3ccc(O)cc13)-c1cc3c(c(=O)n1C2)COC(=O)[C@]3(O)CC` + CNC(=O)c1ccc(Nc2nc(OC3CCCC3)c3c(-c4ccc5nc(C)oc5c4)c[nH]c3n2)c(OC)c1 has an IC50 (second compound 0.0316 µM) of less than 3.16 nM, an IC50 (second compound 0.1 µM) of less than 3.16 nM and an IC50 (second compound 0.316 µM) of less than 3.16 nM. The IC50 (second compound 1 µM) was less than 3.16 nM, the IC50 (second compound 3.16 µM) was less than 3.16 nM and the IC50 (second compound 10 µM) was less than 3.16 nM. For the same compound, the viability, T/C (second compound 0.0316 µM, first compound 0.00316 µM) was 24%, the viability, T/C (second compound 0.0316 µM, first compound 0.01 µM) was 9.43% and the viability, T/C [1] was 8.16%. It also gave a viability, T/C [2] of 5.8%, a viability, T/C [3] of 5.07% and a viability, T/C [4] of 3.65%. It also gave a viability, T/C (second compound 0.1 µM, first compound 0.00316 µM) of 16.5%, a viability, T/C (second compound 0.1 µM, first compound 0.01 µM) of 7.94% and a viability, T/C [7] of 7.35%. It also gave a viability, T/C [8] of 4.4%, a viability, T/C [9] of 4.15% and a viability, T/C [10] of 3.49%. It also gave a viability, T/C (second compound 0.316 µM, first compound 0.00316 µM) of 14.8%, a viability, T/C (second compound 0.316 µM, first compound 0.01 µM) of 6.28% and a viability, T/C [13] of 5.77%. The viability, T/C [14] was 4.17%, the viability, T/C [15] was 4.42% and the viability, T/C [16] was 3.57%. The viability, T/C (second compound 1 µM, first compound 0.00316 µM) was 9.55%, the viability, T/C (second compound 1 µM, first compound 0.01 µM) was 5.23% and the viability, T/C [19] was 4.77%. The viability, T/C [20] was 4.25%, the viability, T/C [21] was 3.64% and the viability, T/C [22] was 2.78%. It also gave a viability, T/C (second compound 3.16 µM, first compound 0.00316 µM) of 7.99%, a viability, T/C (second compound 3.16 µM, first compound 0.01 µM) of 5.52% and a viability, T/C [25] of 4.06%. The viability, T/C [26] was 4.3%, the viability, T/C [27] was 3.4% and the viability, T/C [28] was 2.05%. The viability, T/C (second compound 10 µM, first compound 0.00316 µM) was 6.88%, the viability, T/C (second compound 10 µM, first compound 0.01 µM) was 4.97% and the viability, T/C [31] was 5.13%. The viability, T/C [32] was 4.85%, the viability, T/C [33] was 3.25% and the viability, T/C [34] was 1.96%.
`C=CC(=O)N1CCN(c2nc(=O)n(-c3c(C)ccnc3C(C)C)c3nc(-c4c(O)cccc4F)c(F)cc23)C(C)C1` (stereo unspecified) + CN1CCN(c2cc(C(=O)Nc3cc4cc(-c5cnn(C)c5)ccc4cn3)ccn2)CC1 gave an IC50 (second compound 0.0316 µM) greater than 10000 nM, an IC50 (second compound 0.1 µM) of 1720 nM and an IC50 (second compound 0.316 µM) of less than 31.6 nM. The IC50 (second compound 1 µM) was less than 31.6 nM, the IC50 (second compound 3.16 µM) was less than 31.6 nM and the IC50 (second compound 10 µM) was less than 31.6 nM. For the same compound, the viability, T/C [1] was 80.7%, the viability, T/C [2] was 90.6% and the viability, T/C [3] was 91%. It also gave a viability, T/C [4] of 96.3%, a viability, T/C [5] of 99% and a viability, T/C [6] of 58.4%. It also gave a viability, T/C [7] of 57.9%, a viability, T/C [8] of 47.9% and a viability, T/C [9] of 49.9%. For the same compound, the viability, T/C [10] was 57.7%, the viability, T/C [11] was 45.7% and the viability, T/C [12] was 30.3%. For the same compound, the viability, T/C [13] was 5.51%, the viability, T/C [14] was 4.35% and the viability, T/C [15] was 4.39%. It also gave a viability, T/C [16] of 4.13%, a viability, T/C [17] of 4.65% and a viability, T/C [18] of 2.26%. The viability, T/C [19] was 0.86%, the viability, T/C [20] was 1.32% and the viability, T/C [21] was 1.28%. It also gave a viability, T/C [22] of 2.28%, a viability, T/C [23] of 4.17% and a viability, T/C [24] of 2.16%. The viability, T/C [25] was 1.53%, the viability, T/C [26] was 2.07% and the viability, T/C [27] was 2.2%. For the same compound, the viability, T/C [28] was 2.58%, the viability, T/C [29] was 3.3% and the viability, T/C [30] was 2.74%. For the same compound, the viability, T/C [31] was 0.76%, the viability, T/C [32] was 1.59% and the viability, T/C [33] was 1.62%. For the same compound, the viability, T/C [34] was 2.38%, the viability, T/C [35] was 2.32% and the viability, T/C [36] was 2.42%.
